Structures can show the parent of a compound that is named as a salt.
| Structure (SMILES) | melting point [°C] |
| --- | --- |
| Cc1csc(-c2nc(CNC(=O)CN(C)C)[nH]c2-c2ccc3ncsc3c2)n1 [Compound 114] | 211.5 to 212.5 |
| Cc1csc(-c2nc(CNC(=O)N3CCOCC3)[nH]c2-c2ccc3ncsc3c2)n1 [Compound 185] | 205.5 to 206 |
| Cc1nc(-c2nc(C(F)(F)F)cs2)c(-c2ccc3ncsc3c2)[nH]1 [Compound 244] | 190.5 to 192 |
| NC(=O)c1ccc(-c2nc(-c3nccs3)c(-c3ccc4c(c3)OCO4)[nH]2)cc1 [Compound 2] | 240 to 249 |
| Cc1csc(-c2nc(-c3ccc(C(N)=O)cc3)[nH]c2-c2ccc(O)cc2)n1 [Compound 49] | > 300 |
| CCOC(=O)NCc1nc(-c2nc(C)cs2)c(-c2ccc3ncsc3c2)[nH]1 [Compound 187] | 183 to 184 |
| NC(=O)c1ccc(-c2nc(-c3nccs3)c(-c3ccccn3)[nH]2)cc1 [Compound 4] | 255.5 to 256 |
| C=CCOC(=O)NCc1nc(-c2nc(C)cs2)c(-c2ccc3ncsc3c2)[nH]1 (as salt: HCl) [Compound 192] | 174 to 175 |
| O=C(C(=O)c1nc(C(F)(F)F)cs1)c1ccc2ncsc2c1 [Compound 251] | 163.5 to 164.5 |
| CCCCOC(=O)NCc1nc(-c2nc(C)cs2)c(-c2ccc3ncsc3c2)[nH]1 [Compound 193] | 161 to 162 |
| Cc1csc(-c2nc(CCCN3CCOCC3)[nH]c2-c2ccc3c(c2)OCO3)n1 (as salt: salt) [Compound 76] | 118.5 to 128.5 |
| CCCC(=O)NCCCc1nc(-c2nc(C)cs2)c(-c2ccc3c(c2)OCO3)[nH]1 [Compound 30] | 134.5 to 138.5 |
| Cc1csc(-c2nc(CCCCC(=O)Nc3ccccc3)[nH]c2-c2ccc3ncsc3c2)n1 (as salt: HCl) [Compound 172] | 105 to 117.5 |
| Cc1csc(-c2nc(CCC(=O)N3CCN(CCN4CCOCC4)CC3)[nH]c2-c2ccc3ncsc3c2)n1 [Compound 157] | 164.5 to 166 |
| Cc1csc(-c2nc(CNC(=O)CCCN(C)C)[nH]c2-c2ccc3ncsc3c2)n1 [Compound 116] | 200.5 to 205.5 |
| Cc1csc(-c2nc(CNC(=O)C3CCN(C)CC3)[nH]c2-c2ccc3ncsc3c2)n1 [Compound 117] | 204 to 205.5 |
| CCCC(=O)NCCCCc1nc(-c2nc(C)cs2)c(-c2ccc3c(c2)OCO3)[nH]1 [Compound 33] | 132 to 133 |
| CCCC(=O)NCCc1nc(-c2nc(C)cs2)c(-c2ccc3c(c2)OCO3)[nH]1 [Compound 28] | 148 to 150 |
| CCc1csc(-c2nc(-c3ccc(C(N)=O)cc3)[nH]c2-c2ccc3c(c2)OCO3)n1 [Compound 11] | 259.5 to 261.5 |
| COCCOCC(=O)NCc1nc(-c2nc(C)cs2)c(-c2ccc3ncsc3c2)[nH]1 [Compound 123] | 134 to 135.5 |
| CNCC(=O)NCc1nc(-c2nc(C)cs2)c(-c2ccc3ncsc3c2)[nH]1 [Compound 118] | 200.5 to 203.5 |
| NC(=O)c1ccc(-c2nc(-c3nc(Br)cs3)c(-c3ccc4c(c3)OCO4)[nH]2)cc1 [Compound 13] | 273 to 275.5 |
| Cc1csc(C#Cc2ccc(F)cc2)n1 [Compound 219] | 82 to 83 |
| CCCNC(=O)c1nc(-c2nc(C)cs2)c(-c2ccc3c(c2)OCO3)[nH]1 [Compound 35] | 199.6 to 200 |
| Cc1csc(-c2nc(CCC(=O)NCCN3CCCCC3)[nH]c2-c2ccc3ncsc3c2)n1 [Compound 151] | 114 to 119 |
| COc1ccc(CNC(=O)CCCCc2nc(-c3nc(C)cs3)c(-c3ccc4c(c3)OCO4)[nH]2)cc1 [Compound 44] | 174 to 175 |

| Structure (SMILES) | melting point [°C] |
| --- | --- |
| CCCCCCc1nc(-c2nc(C)cs2)c(-c2ccc3ncsc3c2)[nH]1 [Compound 64] | 129 to 130.5 |
| Cc1csc(-c2nc(CNC(=O)C3CCCO3)[nH]c2-c2ccc3ncsc3c2)n1 (stereo not shown) [Compound 130] | 185 to 185.5 |
| Cc1csc(-c2nc(CNC(=O)CCN(C)C)[nH]c2-c2ccc3ncsc3c2)n1 [Compound 115] | 150 to 150.5 |
| COc1ccc(CC(=O)NCc2nc(-c3nc(C)cs3)c(-c3ccc4c(c3)OCO4)[nH]2)cc1 [Compound 26] | 165.5 to 169.5 |
| Cc1csc(-c2nc(CCC(=O)NCCN3CCCC3)[nH]c2-c2ccc3ncsc3c2)n1 [Compound 152] | 171 to 173 |
| Cc1csc(-c2nc(CCC(=O)N3CCN(C)CC3)[nH]c2-c2ccc3ncsc3c2)n1 [Compound 155] | 201 to 201.5 |
| CCCNC(=O)NCc1nc(-c2nc(C)cs2)c(-c2ccc3ncsc3c2)[nH]1 [Compound 177] | 179.5 to 182 |
| Cc1csc(-c2nc(C(=O)Nc3ccccc3)[nH]c2-c2ccc3c(c2)OCO3)n1 [Compound 36] | 222 to 222.5 |
| Cc1csc(-c2nc(CNC(=O)OCC(C)(C)C)[nH]c2-c2ccc3ncsc3c2)n1 [Compound 196] | 170.5 to 171.5 |
| Cc1csc(-c2nc(CCC(=O)NCCCN(C)C)[nH]c2-c2ccc3ncsc3c2)n1 [Compound 150] | 78.5 to 82.5 |
| Cc1csc(-c2nc(CNC(=O)C3CCCC3)[nH]c2-c2ccc3ncsc3c2)n1 [Compound 112] | 156.5 to 161 |
| Cc1csc(-c2nc(C)n(Cc3ccc(O)cc3)c2-c2ccc3ncsc3c2)n1 [Compound 232] | 215.5 to 218.5 |
| Cc1csc(-c2nc(CNC(=O)CC(C)C)[nH]c2-c2ccc3ncsc3c2)n1 [Compound 107] | 160 to 160.5 |
| CNC(=O)NCc1nc(-c2nc(C)cs2)c(-c2ccc3ncsc3c2)[nH]1 [Compound 238] | 239 to 239.5 |
| Cc1csc(-c2nc(CCC(=O)NC3CC3)[nH]c2-c2ccc3ncsc3c2)n1 [Compound 146] | 196.5 to 197 |
| CCCCNC(=O)NCc1nc(-c2nc(C)cs2)c(-c2ccc3ncsc3c2)[nH]1 [Compound 179] | 190.5 to 191.5 |
| CCCNC(=O)CCc1nc(-c2nc(C)cs2)c(-c2ccc3c(c2)OCO3)[nH]1 [Compound 38] | 106.5 to 108.5 |
| CCCNC(=O)CCCc1nc(-c2nc(C)cs2)c(-c2ccc3c(c2)OCO3)[nH]1 [Compound 40] | 75 to 79 |
| Cc1csc(-c2nc(-c3ccc(C(N)=O)cc3)[nH]c2-c2ccc(F)cc2)n1 [Compound 18] | 281 to 281.5 |
| Cc1csc(-c2nc(C)n(Cc3ccc(OCCN(C)C)cc3)c2-c2ccc3ncsc3c2)n1 [Compound 233] | 146.5 to 148 |
| COCCOc1ccc(Cn2c(C)nc(-c3nc(C)cs3)c2-c2ccc3ncsc3c2)cc1 [Compound 234] | 129.5 to 131 |
| Cc1csc(-c2nc(CNC(=O)OCC(C)C)[nH]c2-c2ccc3ncsc3c2)n1 [Compound 194] | 142.5 to 144 |
| CCCCCNC(=O)NCc1nc(-c2nc(C)cs2)c(-c2ccc3ncsc3c2)[nH]1 [Compound 182] | 199 to 201 |
| Cc1csc(-c2nc(-c3ccc(C#N)cc3)[nH]c2-c2ccc(F)cc2)n1 [Compound 17] | 283.5 to 286 |
| Cc1csc(-c2nc(CNC(=O)NC(C)C)[nH]c2-c2ccc3ncsc3c2)n1 [Compound 178] | 178.5 to 180 |
| Cc1csc(C#Cc2ccc3c(c2)OCO3)n1 [Compound 217] | 111.5 to 112 |
